The Log P is the decadic logarithm of the partition coefficient of the neutral form, usually between octanol and water.

Marks after values point to notes of the source that are not given here.

The values that follow come from patent US8476197B2, “Aminopropenoates as fungicides” (priority 2009, dated 2013).

The conditions of the first data set: pH 2.3.
`C=CCOc1ncccc1C(NC(C)c1nccs1)=C(C#N)C(=O)OCC` (racemic) [Compound 1506]: the lipophilicity (Log P) was 2.03^[c]; 2.03^[b].
In the case of `C=Cc1ncccc1C(NC(C)C(C)C)=C(C#N)C(=O)OCC` (stereo not drawn) [Compound 976], the log partition coefficient (Log P) turned out to be 3.24.
On to `CCNC(=O)C(C#N)=C(Nc1ccccc1SC)c1cccnc1Cl` [Compound 1616], for which the log partition coefficient (Log P) worked out at 2.85.
With `CCOC(=O)C(C#N)=C(Nc1ccccc1SC)c1ccc(Cl)nc1Cl` [Compound 360], the “Log P” value was determined as 3.97.
Consider `CCONC(=O)C(C#N)=C(NC(C)C(C)C)c1cccnc1Cl` (stereo not drawn) [Compound 1454], for which the log partition coefficient (Log P) was 2.44^[c]; 2.44^[b].
Turning to `CSc1ccccc1NC(=C(C#N)C(=O)OCC(C)C)c1cccnc1Cl` [Compound 347], the “Log P” value was 4.15.

Still in this data set, the particulars now being: pH 2.7.
With `CCOC(=O)C(C#N)=C(NC(C)c1nccs1)c1cn(C)nc1C` (stereo not drawn) [Compound 1212], the “Log P” value was 2.11^[a].
`CC(C)C(C)NC(=C(C#N)C(=O)N1CCOCC1)c1cn(C)nc1C(F)F` (stereo not drawn) [Compound 1326]: the “Log P” value is 2.43^[a].
With `CCOC(=O)C(C#N)=C(NC(C)C1CC=CCC1)c1cn(C)nc1C(F)F` (stereo not drawn) [Compound 1141], the lipophilicity (Log P) is 3.62^[a].
For `CCOCC(CC)NC(=C(C#N)C(=O)OCC)c1cccnc1Cl` (stereo not drawn) [Compound 1372], the lipophilicity (Log P) was 3.31^[a].
`CCOC(=O)C(C#N)=C(NCc1ccc(F)cn1)c1sccc1C(F)(F)F` [Compound 201]: the “Log P” value is 3.19^[a].
`CCC(C)NC(=C(C#N)C(=O)OC)c1cccnc1Cl` (stereo not drawn) [Compound 826]: the “Log P” value is 2.55^[a].
The same measure, in the same setting: for `CCOC(=O)C(C#N)=C(NCc1nc(C)cs1)c1sccc1C(F)(F)F` [Compound 175] the value was 3.11^[a]; for `CCOC(=O)C(C#N)=C(Nc1ccc(OC)cc1)c1ccsc1Br` [Compound 525], 3.6^[a].
As for `CCOC(=O)C(C#N)=C(Nc1ccc(SC)cc1)c1ccsc1Br` [Compound 524], the log partition coefficient (Log P) was 4.01^[a].
For `CCOC(=O)/C(C#N)=C(\NC(C)c1nc(C)c(C)s1)c1sccc1Cl` (stereo not drawn) [Compound 150], the lipophilicity (Log P) was 3.76^[a].
As for `CCOC(=O)C(C#N)=C(NC(C)c1cccc(Cl)c1)c1cn(C)nc1C(F)F` (racemic) [Compound 554], the “Log P” value is 3.55^[a].
Same read-out and setting: the value for `CCOC(=O)C(C#N)=C(NCc1nccs1)c1c(C(F)F)nn(C)c1Cl` [Compound 236] was 2.4^[a]; that for `CCOC(=O)C(C#N)=C(NCc1ccc(F)cn1)c1cn(C)nc1C(F)F` [Compound 203] was 2.33^[a].
Take `CCOC(=O)C(C#N)=C(NC(C)COCc1ccccc1F)c1cn(C)nc1C(F)F` (stereo not drawn) [Compound 740]: the lipophilicity (Log P) is 3.48^[a].
With `CCOC(=O)C(C#N)=C(NC(C)C(N)=O)c1ncc(Cl)cc1Cl` (stereo not drawn) [Compound 699], the “Log P” value is 2.01^[a].
On the same count and under the same terms, the value for `CCOC(=O)C(C#N)=C(NC(C)C(N)=O)c1sc(C)nc1C(F)(F)F` (stereo not drawn) [Compound 641] was 1.96^[a].
As to `CCOC(=O)C(C#N)=C(NC(C)c1ccccn1)c1ccnc(Br)c1Cl` (racemic) [Compound 1391], the lipophilicity (Log P) was 3.09^[a].
`COC(=O)C(C#N)=C(NC1CC1F)c1cccnc1Cl` (stereo not drawn) [Compound 759]: the log partition coefficient (Log P) is 1.87^[a].
For `CCOC(=O)C(C#N)=C(NC1CCC1)c1cn(C)nc1C(F)F` [Compound 1123], the “Log P” value is 2.73^[a].
`CCOC(=O)C(C#N)=C(NC(C)C(C)C)c1ccnc(CC)c1Cl` (stereo not drawn) [Compound 1399]: the lipophilicity (Log P) was 4.02^[a].
On the same count and under the same terms, for `CCOC(=O)C(C#N)=C(NC(C)c1nccs1)c1cccnc1C(F)F` (racemic) [Compound 266] the value was 2.39^[a]; for `CCOC(=O)C(C#N)=C(NC(CC)CN(C)C)c1cn(C)nc1C(F)F` (stereo not drawn) [Compound 1334], 1.22^[a]; for `COC(=O)C(C#N)=C(NC(C)c1ccccn1)c1sc(C)nc1C(F)(F)F` (racemic) [Compound 135], 2.77^[a].
Consider `COC(=O)C(C#N)=C(NC(C)C1(Cl)CC1)c1cccnc1Cl` (stereo not drawn) [Compound 768], for which the “Log P” value is 2.72^[a].
Consider `CCOC(=O)C(C#N)=C(NC(C)C1CCC1)c1cc(Cl)sc1Cl` (stereo not drawn) [Compound 1589], for which the “Log P” value was 5.03^[a].
Consider `CCOC(=O)C(C#N)=C(NC(CC)CC#N)c1cn(C)nc1C(F)F` (stereo not drawn) [Compound 1342], for which the “Log P” value is 2.39^[a].
Turning to `CC(C)C(C)NC(=C(C#N)C(=O)NN(C)C)c1cccnc1Cl` (stereo not drawn) [Compound 1614], the log partition coefficient (Log P) is 2.08^[a].
In the case of `CCOC(=O)C(C#N)=C(NC(C)CCc1ccccc1)c1cccnc1Cl` (stereo not drawn) [Compound 1167], the “Log P” value was 3.92^[a].
Turning to `CCOC(=O)C(C#N)=C(NC(C)c1nc(C2CC2)cs1)c1cccnc1Cl` (stereo not drawn) [Compound 1416], the “Log P” value was 3.37^[a].
Regarding `CCOC(=O)C(C#N)=C(NC(c1ccccc1)C(F)(F)F)c1cn(C)nc1C(F)F` (stereo not drawn) [Compound 1224], the “Log P” value is 3.55^[a].
Still for that read-out and setting: the value for `CCOC(=O)C(C#N)=C(NC(C)c1cnn(C)c1)c1cccnc1Cl` (stereo not drawn) [Compound 321] was 2.2^[a]; that for `CCOC(=O)C(C#N)=C(NC1CCC1)c1ccncc1Br` [Compound 803] was 2.9^[a]; that for `CCOC(=O)C(C#N)=C(NC(C)c1nccs1)c1c(C(F)F)nn(C)c1Cl` (racemic) [Compound 234] was 2.77^[a].
For the compound `CCOC(=O)C(C#N)=C(NC(C)c1ccc(Cl)cc1)c1sccc1Br` (stereo not drawn) [Compound 365], the log partition coefficient (Log P) was 4.42^[a].
Take `CCOC(=O)C(C#N)=C(NC(c1ccccn1)C(F)(F)F)c1cccnc1Cl` (racemic) [Compound 1549]: the “Log P” value is 3.17^[a].
Same read-out and setting: for `CC1CC(NC(=O)C(C#N)=C(NC(C)C(C)C)c2cccnc2Cl)C1` (stereo not drawn) [Compound 1512] the value was 4.01^[a]; for `CCOC(=O)C(C#N)=C(NC(C)C(N)=O)c1ccsc1I` (stereo not drawn) [Compound 647], 1.91^[a].
For the compound `CCOC(=O)C(C#N)=C(NC(c1cncnc1C(F)(F)F)C(C)C)c1cccnc1Cl` (racemic) [Compound 1557], the log partition coefficient (Log P) is 3.55^[a].
Turning to `CCOC(=O)C(C#N)=C(NC1(c2c(F)cccc2F)CC1)c1sc(Cl)nc1Cl` [Compound 528], the “Log P” value was 4.14^[a].
Still for that read-out and setting: the value for `CCOC(=O)C(C#N)=C(NC1CC1C1CC1)c1cccnc1Cl` (stereo not drawn) [Compound 1634] was 3.13^[a]; that for `C=Cc1nn(C)cc1C(NC(C)C(C)C)=C(C#N)C(=O)OCC` (stereo not drawn) [Compound 971] was 3.06^[a]; that for `CCOC(=O)C(C#N)=C(NC1CCC1)c1ccnc2ccccc12` [Compound 1498] was 2.88^[a].
Turning to `CCOC(=O)C(C#N)=C(NC(C)C(=O)NC)c1cn(C)nc1C(F)F` (stereo not drawn) [Compound 599], the “Log P” value was 1.66^[a].
With `CCOC(=O)C(C#N)=C(NC(C)c1sc(C)nc1C)c1sc(C)nc1C(F)(F)F` (stereo not drawn) [Compound 218], the “Log P” value is 3.13^[a].
Turning to `CCOC(=O)C(C#N)=C(NC(C)(C)C#CCOC)c1sc(C)nc1C(F)(F)F` [Compound 1102], the lipophilicity (Log P) was 3.42^[a].
On the same count and under the same terms, the value for `CCOC(=O)C(C#N)=C(NC1CC1)c1cn(C)nc1C(F)F` [Compound 1124] was 2.35^[a]; that for `CCOC(=O)C(C#N)=C(NCc1nc(C(F)(F)F)cs1)c1sccc1C(F)(F)F` [Compound 177] was 3.51^[a].
Still for that read-out and setting: the value for `CCOC(=O)C(C#N)=C(NC1CCC1C)c1cccnc1Cl` (stereo not drawn) [Compound 1065] was 3.37^[a]; that for `CCOC(=O)C(C#N)=C(NC(C)COc1ccccc1C)c1cn(C)nc1C(F)F` (racemic) [Compound 1242] was 3.78^[a]; that for `CCOC(=O)C(C#N)=C(NC1CCC1)c1cnc(Cl)cc1Cl` [Compound 796] was 3.55^[a].
With `CCOC(=O)C(C#N)=C(NC1CCC1)c1ccnc(C(F)(F)F)c1Cl` [Compound 1621], the log partition coefficient (Log P) is 3.78^[a].
Regarding `CCOC(=O)C(C#N)=C(NC(C)Cc1c[nH]c2ccccc12)c1c(C(F)F)nn(C)c1Cl` (racemic) [Compound 237], the lipophilicity (Log P) was 3.42^[a].
With `CCOC(=O)C(C#N)=C(NC(C)COCc1ccccc1)c1cn(C)nc1C(F)F` (stereo not drawn) [Compound 739], the “Log P” value was 3.48^[a].
Consider `CCOC(=O)C(C#N)=C(NC1(c2c(F)cccc2F)CC1)c1cn(C)cc1C(F)(F)F` [Compound 547], for which the lipophilicity (Log P) is 3.85^[a].
On the same count and under the same terms, the value for `CCOC(=O)C(C#N)=C(NC(C)C(=O)Nc1ccc2ccccc2c1)c1ccsc1Br` (stereo not drawn) [Compound 717] was 3.94^[a]; that for `COC(=O)C(C#N)=C(NC(C)c1cccc(Cl)c1)c1cccnc1Cl` (stereo not drawn) [Compound 403] was 3.19^[a].
With `CCOC(=O)C(C#N)=C(NC(C#N)c1cnn(-c2ccccc2)c1)c1cn(C)nc1C(F)F` (stereo not drawn) [Compound 1232], the log partition coefficient (Log P) is 3.15^[a].
Still for that read-out and setting: for `COC(=O)C(C#N)=C(NC(C)c1cc(Cl)ccc1Cl)c1cccnc1Cl` (stereo not drawn) [Compound 394] the value was 3.28^[a]; for `CCCCCC(C)NC(=C(C#N)C(=O)OCC)c1sccc1Br` (racemic) [Compound 846], 5.03^[a]; for `CCOC(=O)C(C#N)=C(NC(C)c1cccc(OC)c1)c1cn(C)nc1C(F)F` (stereo not drawn) [Compound 1225], 3.21^[a].
Regarding `CCOC(=O)C(C#N)=C(NC(C)C#N)c1cn(C)nc1C(F)F` (racemic) [Compound 1254], the “Log P” value is 2.15^[a].
`CCOC(=O)C(C#N)=C(NC1(c2c(F)cccc2F)CC1)c1cn(C)nc1OC` [Compound 508]: the “Log P” value was 3.02^[a].
On the same count and under the same terms, the value for `CCOC(=O)C(C#N)=C(NC(C)C(C)CC)c1cnn(C)c1Cl` (mixture of isomers) [Compound 1544] was 3.6^[a].
On to `CCOC(=O)C(C#N)=C(NC(C)C(C)C)c1cn(C)nc1I` (stereo not drawn) [Compound 1202], for which the “Log P” value is 3.22^[a].

The data set is the same for the next values; noted with them: pH 7.5.
On to `C=CCOc1ncccc1C(NC(C)c1nccs1)=C(C#N)C(=O)OCC` (racemic) [Compound 1506], for which the “Log P” value was 2.03^[c]; 2.03^[b].
Consider `C=Cc1ncccc1C(NC(C)C(C)C)=C(C#N)C(=O)OCC` (stereo not drawn) [Compound 976], for which the lipophilicity (Log P) is reported as 3.26.
On the same count and under the same terms, for `CCNC(=O)C(C#N)=C(Nc1ccccc1SC)c1cccnc1Cl` [Compound 1616] the value was 2.82.
For the compound `CCOC(=O)C(C#N)=C(Nc1ccccc1SC)c1ccc(Cl)nc1Cl` [Compound 360], the lipophilicity (Log P) came out at 3.79.
As to `CCOC(=O)C(C#N)=C(NC(C)C1CC1)c1cccnc1Cl` (stereo not drawn) [Compound 878], the “Log P” value was determined as 2.93.
As for `CCONC(=O)C(C#N)=C(NC(C)C(C)C)c1cccnc1Cl` (stereo not drawn) [Compound 1454], the “Log P” value is 2.44^[c]; 2.44^[b].
Regarding `CCOC(=O)C(C#N)=C(NC(C)CCc1c(Cl)cccc1Cl)c1cccnc1Cl` (mixture of isomers) [Compound 429], the lipophilicity (Log P) was determined as 4.62.
As to `CSc1ccccc1NC(=C(C#N)C(=O)OCC(C)C)c1cccnc1Cl` [Compound 347], the log partition coefficient (Log P) worked out at 3.94.
